ChEMBL document CHEMBL1201862, “PubChem BioAssay data set” (2004)
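Five compound concentrations were applied to cells in 96-well plates for 48 hours; endpoints were derived by simple linear interpolation of the resulting dose-response curve. GI50 = concentration required for 50% inhibition of growth.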 Activity calls are given as the source filed them. No stated cut-off is given here; in the data, active = GI50 up to about 1.1 µM and inactive = higher.

Assays:
Experiment in all cases: inhibition of tumour cell growth, NCI panel, 48 h
786-0 = tested on: 786-0
A498 = tested on: A498
A549 = tested on: A549
ACHN = tested on: ACHN
CAKI-1 = tested on: CAKI-1
CCRF-CEM = tested on: CCRF-CEM
COLO 205 = tested on: COLO 205
DU-145 = tested on: DU-145
EKVX = tested on: EKVX
HCC 2998 = tested on: HCC 2998
HCT-116 = tested on: HCT-116
HCT-15 = tested on: HCT-15
HL-60 = tested on: HL-60
HOP-62 = tested on: HOP-62
HOP-92 = tested on: HOP-92
HT-29 = tested on: HT-29
Hs-578T = tested on: Hs-578T
IGROV-1 = tested on: IGROV-1
K562 = tested on: K562
KM12 = tested on: KM12
LOX IMVI = tested on: LOX IMVI
M14 = tested on: M14
MCF7 = tested on: MCF7
MDA-MB-231 = tested on: MDA-MB-231
MDA-MB-435 = tested on: MDA-MB-435
MDA-N = tested on: MDA-N
MOLT-4 = tested on: MOLT-4
Malme-3M = tested on: Malme-3M
NCI-H226 = tested on: NCI-H226
NCI-H23 = tested on: NCI-H23
NCI-H460 = tested on: NCI-H460
NCI-H522 = tested on: NCI-H522
NCI/ADR-RES = tested on: NCI/ADR-RES
OVCAR-3 = tested on: OVCAR-3
OVCAR-4 = tested on: OVCAR-4
OVCAR-5 = tested on: OVCAR-5
OVCAR-8 = tested on: OVCAR-8
PC-3 = tested on: PC-3
RPMI-8226 = tested on: RPMI-8226
RXF 393 = tested on: RXF 393
SF-268 = tested on: SF-268
SF-295 = tested on: SF-295
SF-539 = tested on: SF-539
SK-MEL-28 = tested on: SK-MEL-28
SK-MEL-2 = tested on: SK-MEL-2
SK-MEL-5 = tested on: SK-MEL-5
SK-OV-3 = tested on: SK-OV-3
SN12C = tested on: SN12C
SNB-19 = tested on: SNB-19
SNB-75 = tested on: SNB-75
SR = tested on: SR
SW-620 = tested on: SW-620
T47D = tested on: T47D
TK-10 = tested on: TK-10
U-251 = tested on: U-251
UACC-257 = tested on: UACC-257
UACC-62 = tested on: UACC-62
UO-31 = tested on: UO-31

Cc1ccc(S(=O)(=O)n2c3c(c4ccccc42)CCN2C(=O)C(S(=O)(=O)c4ccccc4)=CCC32)cc1 (stereo not drawn)
GI50 (786-0): 0.178 µM (active) | GI50 (A498): 0.213 µM (active) | GI50 (A549): 1.22 µM (inactive) | GI50 (ACHN): 0.193 µM (active) | GI50 (CAKI-1): 0.262 µM (active) | GI50 (CCRF-CEM): 0.228 µM (active) | GI50 (COLO 205): 0.236 µM (active) | GI50 (DU-145): 0.17 µM (active) | GI50 (EKVX): 0.448 µM (active) | GI50 (HCC 2998): 0.212 µM (active) | GI50 (HCT-116): 0.17 µM (active) | GI50 (HCT-15): 0.188 µM | GI50 (HL-60): 0.233 µM (active) | GI50 (HOP-62): 0.24 µM (active) | GI50 (HOP-92): 0.149 µM (active) | GI50 (HT-29): 0.212 µM (active) | GI50 (Hs-578T): 0.579 µM (active) | GI50 (IGROV-1): 0.184 µM (active) | GI50 (K562): 0.202 µM (active) | GI50 (KM12): 0.194 µM (active) | GI50 (LOX IMVI): 0.185 µM (active) | GI50 (M14): 0.175 µM (active) | GI50 (MCF7): 0.164 µM (active) | GI50 (MDA-MB-231): 0.186 µM (active) | GI50 (MDA-MB-435): 0.211 µM (active) | GI50 (MDA-N): 0.192 µM (active) | GI50 (MOLT-4): 0.304 µM (active) | GI50 (Malme-3M): 0.213 µM (active) | GI50 (NCI-H226): 1.77 µM (inactive) | GI50 (NCI-H23): 0.158 µM (active) | GI50 (NCI-H460): 0.368 µM (active) | GI50 (NCI-H522): 0.259 µM (active) | GI50 (NCI/ADR-RES): 0.218 µM (active) | GI50 (OVCAR-3): 0.164 µM (active) | GI50 (OVCAR-4): 0.179 µM (active) | GI50 (OVCAR-5): 0.23 µM (active) | GI50 (OVCAR-8): 0.167 µM (active) | GI50 (PC-3): 0.239 µM (active) | GI50 (RPMI-8226): 0.327 µM (active) | GI50 (RXF 393): 0.14 µM (active) | GI50 (SF-268): 0.238 µM (active) | GI50 (SF-295): 1.79 µM (inactive) | GI50 (SF-539): 0.191 µM (active) | GI50 (SK-MEL-28): 0.168 µM (active) | GI50 (SK-MEL-2): 0.217 µM (active) | GI50 (SK-MEL-5): 0.165 µM (active) | GI50 (SK-OV-3): 1.3 µM (inactive) | GI50 (SN12C): 0.211 µM (active) | GI50 (SNB-19): 0.652 µM (active) | GI50 (SNB-75): 0.157 µM (active) | GI50 (SR): 0.255 µM (active) | GI50 (SW-620): 0.281 µM (active) | GI50 (T47D): 0.154 µM (active) | GI50 (TK-10): 0.0646 µM (active) | GI50 (U-251): 0.22 µM (active) | GI50 (UACC-257): 0.169 µM (active) | GI50 (UACC-62): 0.27 µM (active) | GI50 (UO-31): 0.234 µM (active)
